Test results taken from patent US12565504B2, “Spirocyclic O-glycoprotein-2-acetamido-2-deoxy-3-d-glucopyranosidase inhibitors” (BIOGEN MA INC., priority 2019, dated 2026).

Tests used:
OGA (S400 O-GLCNAC) = OGA (S400 O-GLCNAC) (Homo sapiens (Human), UniProt O60502); test: Cellular OGA-Tau MSD Assay; type: cell-based; conditions: HEK-293T cells transfected with OGT and Tau-V5; Tau-S400-GlcNAc MSD readout
Method: HEK-293T cells were transfected with OGT and Tau-V5 plasmids using Lipofectamine and grown overnight. Next day, the cells were collected and re-plated at 1×10^5 cells per well in 96 well plates. Cells were incubated for 4 hr at 37° C., before compounds were added at 1 uM, with 3-fold dilutions in a 10-point titration. Cell plates were incubated with compounds overnight at 37° C. The next day media was removed from wells by gentle aspiration and 120 ul of 1× Cell Lysis buffer mixed with protease and phosphatase cocktail added to each well. A freeze thaw was performed at −80° C., then mixed before transferring 50 μl to MSD plates coated with V5-tag antibody to capture Tau. MSD Plates were incubated overnight at 4° C., on a plate shaker. The following day, plates were washed and incubated with Tau-S400-GlcNAc antibody for 2 hr and then developed with rabbit Sulfo-tag antibody. Final read out was carried out on an MSD 600 reader. The data was analyzed using Graph Pad or Genedata, the data was normalized and % activity versus log of compound concentration was plotted. The ICso values were obtained from a 4 parameter fit.

[1] = target: Recombinant full length human OGA enzyme (Homo sapiens (Human), UniProt O60502); test: OGA Enzyme Inhibition Biochemical Assay; conditions: 1 nM OGA, 100 μM 4-MUGlcNAc, 90 minutes, pH 6.4
Method: Recombinant full length human OGA enzyme was purchased from Origene. 4-MUGlcNAc substrate was purchased from Sigma. All other reagents were purchased from Sigma or Fisher. Assay buffer consists of the McIlvaine buffer system, pH 6.4 (0.2M Na2HPO4 mixed with 0.1M citric acid) and 0.01% BSA. […] Reactions were incubated for 90 minutes at room temperature and quenched with 40 μl of 3M glycine, pH 10 and read on a Perkin Elmer Envision plate reader (Ex: 355 nm/Em: 460 nm). Compounds were tested with a 10-point dose-response starting from 20 μM with a 4-fold dilution. Data was fit using GraphPad Prism using a 4-parameter fit with variable slope.

Sequence of Recombinant full length human OGA enzyme (O60502 whole entry): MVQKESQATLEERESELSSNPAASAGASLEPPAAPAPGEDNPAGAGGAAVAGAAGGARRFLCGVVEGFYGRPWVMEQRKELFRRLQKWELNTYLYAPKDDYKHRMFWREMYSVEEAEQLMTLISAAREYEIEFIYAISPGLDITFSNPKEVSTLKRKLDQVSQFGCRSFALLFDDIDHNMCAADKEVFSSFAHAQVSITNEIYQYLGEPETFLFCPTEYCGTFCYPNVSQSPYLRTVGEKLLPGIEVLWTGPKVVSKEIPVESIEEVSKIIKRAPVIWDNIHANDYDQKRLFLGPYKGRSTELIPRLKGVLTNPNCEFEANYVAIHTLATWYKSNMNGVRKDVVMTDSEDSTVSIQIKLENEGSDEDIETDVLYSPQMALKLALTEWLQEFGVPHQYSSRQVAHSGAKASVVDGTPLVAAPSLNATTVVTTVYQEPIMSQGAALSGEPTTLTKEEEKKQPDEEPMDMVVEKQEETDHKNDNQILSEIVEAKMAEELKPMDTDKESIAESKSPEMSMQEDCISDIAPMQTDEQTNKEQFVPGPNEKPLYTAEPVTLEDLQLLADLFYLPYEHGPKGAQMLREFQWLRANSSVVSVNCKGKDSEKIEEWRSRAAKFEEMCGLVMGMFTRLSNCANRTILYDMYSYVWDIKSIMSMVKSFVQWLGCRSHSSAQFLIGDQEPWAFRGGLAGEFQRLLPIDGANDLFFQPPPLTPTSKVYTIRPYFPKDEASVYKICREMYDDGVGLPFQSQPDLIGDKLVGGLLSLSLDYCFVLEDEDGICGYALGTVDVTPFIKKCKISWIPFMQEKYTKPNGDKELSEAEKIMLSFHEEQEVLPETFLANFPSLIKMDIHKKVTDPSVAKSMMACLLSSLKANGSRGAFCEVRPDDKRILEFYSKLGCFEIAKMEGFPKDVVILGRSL
Sequence of OGA (S400 O-GLCNAC) (O60502 whole entry): as above

Structure (SMILES)	IC50 (OGA (S400 O-GLCNAC)) [nM]	IC50 [1] [nM]
CC(=O)Nc1ncc(CN2C[C@]3(C[C@@H]2C)OCc2ccncc23)s1 [Example 71-b, N-(5-(((3R,5′S)-5′-methyl-1H-spiro[furo[3,4-c]pyridine-3,3′-pyrrolidin]-1′-yl)methyl)thiazol-2-yl)acetamide]		260
CC(=O)Nc1ncc(CN2C[C@@]3(Cc4cc(C(F)F)ncc4O3)C[C@@H]2C)s1 [Example 27, N-(5-(((2R,5′S)-5-(Difluoromethyl)-5′-methyl-3H-spiro[furo[2,3-c]pyridine-2,3′-pyrrolidin]-1′-yl)methyl)thiazol-2-yl)acetamide]	16	11
CC(=O)Nc1nc(F)c(CN2CCC[C@]3(C2)OCc2c3ccnc2Cl)s1 [Example 84-b, (S)—N-(5-((4-chloro-3H-spiro[furo[3,4-c]pyridine-1,3′-piperidin]-1′-yl)methyl)-4-fluorothiazol-2-yl)acetamide]	> 1000	310
CC(=O)Nc1nc(F)c(CN2C[C@@]3(Cc4cc(NC(C)C)ncc4O3)C[C@@H]2C)s1 [Example 30, N-(4-Fluoro-5-(((2R,5′S)-5-(isopropylamino)-5′-methyl-3H-spiro[furo[2,3-c]pyridine-2,3′-pyrrolidin]-1′-yl)methyl)thiazol-2-yl)acetamide]	8	< 1
CC(=O)Nc1ncc(CN2CCC3(Cc4cnccc4O3)C2)s1 (stereo not drawn) [Example 13, N-(5-((3H-Spiro[furo[3,2-c]pyridine-2,3′-pyrrolidin]-1′-yl)methyl)thiazol-2-yl)acetamide]	796	130
CC(=O)Nc1nc(F)c(CN2CCC3(Cc4cccnc4O3)C2)s1 (stereo not drawn) [Example 15, N-(5-((3H-Spiro[furo[2,3-b]pyridine-2,3′-pyrrolidin]-1′-yl)methyl)-4-fluorothiazol-2-yl)acetamide]		1700
CC(=O)Nc1ncc(CN2C[C@@]3(Cc4ccccc4O3)C[C@@H]2C)s1 [Example 2, N-(5-(((2R,5′S)-5′-Methyl-3H-spiro[benzofuran-2,3′-pyrrolidin]-1′-yl)methyl)thiazol-2-yl)acetamide]	41	27
CC(=O)Nc1ncc(CN2CC3(C[C@@H]2C)OCc2cccnc23)s1 (stereo partly drawn) [Example 62, N-(5-(((5′S)-5′-Methyl-5H-spiro[furo[3,4-b]pyridine-7,3′-pyrrolidin]-1′-yl)methyl)thiazol-2-yl)acetamide]	73	44
CC(=O)Nc1ncc(CN2CCC3(Cc4cc(Cl)ccc4O3)C2)s1 (stereo not drawn) [Example 5, N-(5-((5-Chloro-3H-spiro[benzofuran-2,3′-pyrrolidin]-1′-yl)methyl)thiazol-2-yl)acetamide]		150
CC(=O)Nc1nc(F)c(CN2CCC3(Cc4ccncc4O3)C2)s1 (stereo not drawn) [Example 90, N-(5-((3H-spiro[furo[2,3-c]pyridine-2,3′-pyrrolidin]-1′-yl)methyl)-4-fluorothiazol-2-yl)acetamide]		120
CC(=O)Nc1nc(F)c(CN2CCC3(Cc4cc(Cl)ccc4O3)C2)s1 (stereo not drawn) [Example 6, N-(5-((5-Chloro-3H-spiro[benzofuran-2,3′-pyrrolidin]-1′-yl)methyl)-4-fluorothiazol-2-yl)acetamide]		140
CC(=O)Nc1ncc(CN2C[C@@]3(C[C@@H]2C)OCc2ccncc23)s1 [Example 71-a, N-(5-(((3S,5′S)-5′-Methyl-1H-spiro[furo[3,4-c]pyridine-3,3′-pyrrolidin]-1′-yl)methyl)thiazol-2-yl)acetamide]		150
CC(=O)Nc1ncc(CN2CCC3(Cc4cccnc4O3)C2)s1 (stereo not drawn) [Example 14, N-(5-((3H-Spiro[furo[2,3-b]pyridine-2,3′-pyrrolidin]-1′-yl)methyl)thiazol-2-yl)acetamide]		3800

The remaining lines, values ahead:

IC50 (OGA (S400 O-GLCNAC)) [nM]	IC50 [1] [nM]	Structure (SMILES)
8.4	1.4	CC(=O)Nc1nc(F)c(CN2CCC[C@@]3(C2)OCc2cnccc23)s1 (single isomer, unassigned) [Example 70-a]
	24	CC(=O)Nc1ncc(CN2C[C@@]3(C[C@@H]2C)OCc2cnccc23)s1 (single isomer, unassigned) [Example 65-a]
12	1	CC(=O)Nc1nc(F)c(CN2C[C@@]3(Cc4ccncc4O3)C[C@@H]2C)s1 [Example 9, N-(4-Fluoro-5-(((2R,5′S)-5′-methyl-3H-spiro[furo[2,3-c]pyridine-2,3′-pyrrolidin]-1′-yl)methyl)thiazol-2-yl)acetamide]
7		COc1nccc2c1COC21C[C@H](C)N(Cc2sc(NC(C)=O)nc2F)C1 (stereo partly drawn) [Example 77, N-(4-Fluoro-5-(((5′S)-4-methoxy-5′-methyl-3H-spiro[furo[3,4-c]pyridine-1,3′-pyrrolidin]-1′-yl)methyl)thiazol-2-yl)acetamide]
865	15	CC(=O)Nc1nc(F)c(CN2C[C@@]3(Cc4ccccc4O3)C[C@@H]2C)s1 [Example 1, N-(4-Fluoro-5-(((2R,5′S)-5′-methyl-3H-spiro[benzofuran-2,3′-pyrrolidin]-1′-yl)methyl)thiazol-2-yl)acetamide]
3	< 1	CCOc1cc2c(cn1)O[C@]1(C2)C[C@H](C)N(Cc2sc(NC(C)=O)nc2F)C1 [Example 46, N-(5-(((2R,5′S)-5-Ethoxy-5′-methyl-3H-spiro[furo[2,3-c]pyridine-2,3′-pyrrolidin]-1′-yl)methyl)-4-fluorothiazol-2-yl)acetamide]
4	< 1	COc1ccc2c(n1)C[C@]1(C[C@H](C)N(Cc3sc(NC(C)=O)nc3F)C1)O2 [Example 20, N-(4-Fluoro-5-(((2S,5′S)-5-methoxy-5′-methyl-3H-spiro[furo[3,2-b]pyridine-2,3′-pyrrolidin]-1′-yl)methyl)thiazol-2-yl)acetamide]
5		CC(=O)Nc1nc(F)c(CN2CC3(C[C@@H]2C)OCc2ncccc23)s1 (stereo partly drawn) [Example 79, N-(4-Fluoro-5-(((5′S)-5′-methyl-7H-spiro[furo[3,4-b]pyridine-5,3′-pyrrolidin]-1′-yl)methyl)thiazol-2-yl)acetamide]
	170	CC(=O)Nc1nc(F)c(CN2C[C@]3(C[C@@H]2C)OCc2cnccc23)s1 (single isomer, unassigned) [Example 64-b]
	440	CC(=O)Nc1ncc(CN2C[C@]3(C[C@@H]2C)OCc2cnccc23)s1 (single isomer, unassigned) [Example 65-b]
1	< 1	CC(=O)Nc1nc(F)c(CN2C[C@@]3(Cc4cc(N(C)C)ncc4O3)C[C@@H]2C)s1 [Example 28, N-(5-(((2R,5′S)-5-(Dimethylamino)-5′-methyl-3H-spiro[furo[2,3-c]pyridine-2,3′-pyrrolidin]-1′-yl)methyl)-4-fluorothiazol-2-yl)acetamide]
	30	CC(=O)Nc1nc(F)c(CN2C[C@@]3(C[C@@H]2C)OCc2ccncc23)s1 (single isomer, unassigned) [Example 72-a]
	110	CC(=O)Nc1nc(F)c(CN2C[C@]3(C[C@@H]2C)OCc2ccncc23)s1 (single isomer, unassigned) [Example 72-b]
	29	CC(=O)Nc1nc(F)c(CN2CCCC3(C2)OCc2cccnc23)s1 (stereo not drawn) [Example 61, N-(5-((5H-Spiro[furo[3,4-b]pyridine-7,3′-piperidin]-1′-yl)methyl)-4-fluorothiazol-2-yl)acetamide]
